{"source": "patent US10588315B2", "about": "“Fungicidal compositions” (Syngenta Participations AG, priority 2012, dated 2020)", "type_in_all_cases": "cell-based", "key": {"Alternaria solani": {"test_system": "Alternaria solani", "test": "Alternaria solani / liquid culture", "settings": "Alternaria solani, B9.2, read-out: observed % activity", "experimental": "(§1) Mycelia fragments or conidia suspensions of a fungus, prepared either freshly from liquid cultures of the fungus or from cryogenic storage, were directly mixed into nutrient broth. DMSO solutions of the test compound (max. 10 mg/ml) was diluted with 0.025% Tween20 by factor 50 and 10 μl of this solution was pipetted into a microtiter plate (96-well format). The nutrient broth containing the fungal spores/mycelia fragments was then added to give an end concentration of the tested compound. The test plates were incubated in the dark at 24° C. and 96% rh. The inhibition of fungal growth was determined photometrically and visually after 2-4 days, depending on the pathosystem, and percent antifungal activity relative to the untreated check was calculated.\n(§2) Conidia of the fungus from cryogenic storage were directly mixed into nutrient broth (PDB potato dextrose broth). After placing a (DMSO) solution of test compound into a microtiter plate (96-well format), the nutrient broth containing the fungal spores was added."}, "Gaeumannomyces graminis": {"test_system": "Gaeumannomyces graminis", "test": "Gaeumannomyces graminis / liquid culture", "settings": "for inhibition at 0.2 ppm: 1.001 0.2000 ppm; for inhibition at 0.1 ppm: 1.001 0.1000 ppm", "experimental": "as §1\nMycelial fragments of the fungus from cryogenic storage were directly mixed into nutrient broth (PDB potato dextrose broth). After placing a (DMSO) solution of test compound into a microtiter plate (96-well format), the nutrient broth containing the fungal spores was added."}, "[1]": {"test_system": "Monographella nivalis (Microdochium nivale)", "test": "Monographella nivalis (Microdochium nivale) / liquid culture", "settings": "for inhibition at 0.025 ppm: 1.001 0.0250 ppm; for inhibition at 0.05 ppm: 1.001 0.0500 ppm", "experimental": "as §1, §2"}, "[2]": {"settings": "Gaeumannomyces graminis, B4.1, read-out: observed % activity"}, "[3]": {"settings": "Gaeumannomyces graminis, B5.1, read-out: observed % activity"}, "[4]": {"settings": "Gaeumannomyces graminis, B9.1, read-out: observed % activity"}, "[5]": {"settings": "Monographella nivalis, B1.3, read-out: observed % activity"}, "[6]": {"settings": "Monographella nivalis, B2.3, read-out: observed % activity"}, "[7]": {"settings": "Monographella nivalis, B5.4, read-out: observed % activity"}}, "note": "Values joined by “and” are separate entries in the source; they are usually repeats but may differ in a detail not shown here. Equal entries are not always repeated. Where two headings read alike, the source gives them in different places."}
{"compound": "CON(C(=O)c1cn(C)nc1C(F)F)C(C)Cc1c(Cl)cc(Cl)cc1Cl", "note": "(stereo not drawn) [Compound 1.001, 3-(difluoromethyl)-N-methoxy-1-methyl-N-[1-methyl-2-(2,4,6-trichlorophenyl)ethyl]pyrazole-4-carboxamide]", "values": [{"measurement": "inhibition at 0.0016 ppm", "setting": "Alternaria solani; 1.001 0.0016 ppm", "value": 37, "unit": "%"}, {"measurement": "inhibition at 0.0031 ppm", "setting": "Alternaria solani; 1.001 0.0031 ppm", "value": 67, "unit": "%"}, {"measurement": "observed % activity", "setting": "Gaeumannomyces graminis; 1.001 0.0063 ppm", "value": 10, "unit": "%"}, {"measurement": "observed % activity", "setting": "Gaeumannomyces graminis; 1.001 0.0125 ppm", "value": 1, "unit": "%"}, {"measurement": "observed % activity", "setting": "Gaeumannomyces graminis; 1.001 0.0250 ppm", "value": 6, "unit": "%"}, {"measurement": "observed % activity", "setting": "Gaeumannomyces graminis; 1.001 0.0500 ppm", "value": "3% and 1% and 9%"}, {"measurement": "inhibition at 0.0016 ppm", "setting": "Gaeumannomyces graminis; Gaeumannomyces graminis, 1.001 0.0016 ppm, read-out: observed % activity", "value": 0, "unit": "%"}, {"measurement": "inhibition at 0.2 ppm", "setting": "Gaeumannomyces graminis; Gaeumannomyces graminis, B1.1, read-out: observed % activity", "value": 7, "unit": "%"}, {"measurement": "inhibition at 0.0125 ppm", "setting": "Gaeumannomyces graminis; Gaeumannomyces graminis, B2.1, 1.001 0.0125 ppm, read-out: observed % activity", "value": 0, "unit": "%"}, {"measurement": "inhibition at 0.025 ppm", "setting": "Gaeumannomyces graminis; Gaeumannomyces graminis, B2.1, 1.001 0.0250 ppm, read-out: observed % activity", "value": 4, "unit": "%"}, {"measurement": "inhibition at 0.05 ppm", "setting": "Gaeumannomyces graminis; Gaeumannomyces graminis, B2.1, 1.001 0.0500 ppm, read-out: observed % activity", "value": 0, "unit": "%"}, {"measurement": "inhibition at 0.1 ppm", "setting": "Gaeumannomyces graminis; Gaeumannomyces graminis, B2.1, read-out: observed % activity", "value": 0, "unit": "%"}, {"measurement": "inhibition at 0.0031 ppm", "setting": "Gaeumannomyces graminis; Gaeumannomyces graminis, B3.1, 1.001 0.0031 ppm, read-out: observed % activity", "value": 0, "unit": "%"}, {"measurement": "inhibition at 0.0063 ppm", "setting": "Gaeumannomyces graminis; Gaeumannomyces graminis, B3.1, 1.001 0.0063 ppm, read-out: observed % activity", "value": 0, "unit": "%"}, {"measurement": "inhibition at 0.0125 ppm", "setting": "Gaeumannomyces graminis; Gaeumannomyces graminis, B3.1, 1.001 0.0125 ppm, read-out: observed % activity", "value": 8, "unit": "%"}, {"measurement": "inhibition at 0.025 ppm", "setting": "Gaeumannomyces graminis; Gaeumannomyces graminis, B3.1, 1.001 0.0250 ppm, read-out: observed % activity", "value": 0, "unit": "%"}, {"measurement": "inhibition at 0.05 ppm", "setting": "Gaeumannomyces graminis; Gaeumannomyces graminis, B3.1, 1.001 0.0500 ppm, read-out: observed % activity", "value": 0, "unit": "%"}, {"measurement": "inhibition at 0.0125 ppm", "setting": "Gaeumannomyces graminis; Gaeumannomyces graminis, B4.1, 1.001 0.0125 ppm, read-out: observed % activity", "value": 0, "unit": "%"}, {"measurement": "inhibition at 0.025 ppm", "setting": "Gaeumannomyces graminis; Gaeumannomyces graminis, B4.1, 1.001 0.0250 ppm, read-out: observed % activity", "value": 0, "unit": "%"}, {"measurement": "inhibition at 0.05 ppm", "setting": "Gaeumannomyces graminis; Gaeumannomyces graminis, B4.1, 1.001 0.0500 ppm, read-out: observed % activity", "value": 0, "unit": "%"}, {"measurement": "inhibition at 0.1 ppm", "setting": "Gaeumannomyces graminis; [2]", "value": 0, "unit": "%"}, {"measurement": "inhibition at 0.2 ppm", "setting": "Gaeumannomyces graminis; [2]", "value": 12, "unit": "%"}, {"measurement": "inhibition at 0.025 ppm", "setting": "Gaeumannomyces graminis; Gaeumannomyces graminis, B5.1, 1.001 0.0250 ppm, read-out: observed % activity", "value": 0, "unit": "%"}, {"measurement": "inhibition at 0.05 ppm", "setting": "Gaeumannomyces graminis; Gaeumannomyces graminis, B5.1, 1.001 0.0500 ppm, read-out: observed % activity", "value": 2, "unit": "%"}, {"measurement": "inhibition at 0.1 ppm", "setting": "Gaeumannomyces graminis; [3]", "value": 0, "unit": "%"}, {"measurement": "inhibition at 0.2 ppm", "setting": "Gaeumannomyces graminis; [3]", "value": 0, "unit": "%"}, {"measurement": "inhibition at 0.0063 ppm", "setting": "Gaeumannomyces graminis; Gaeumannomyces graminis, B6.1, 1.001 0.0063 ppm, read-out: observed % activity", "value": 0, "unit": "%"}, {"measurement": "inhibition at 0.025 ppm", "setting": "Gaeumannomyces graminis; Gaeumannomyces graminis, B6.1, 1.001 0.0250 ppm, read-out: observed % activity", "value": 0, "unit": "%"}, {"measurement": "inhibition at 0.1 ppm", "setting": "Gaeumannomyces graminis; Gaeumannomyces graminis, B6.1, read-out: observed % activity", "value": 0, "unit": "%"}, {"measurement": "inhibition at 0.0125 ppm", "setting": "Gaeumannomyces graminis; Gaeumannomyces graminis, B9.1, 1.001 0.0125 ppm, read-out: observed % activity", "value": 0, "unit": "%"}, {"measurement": "inhibition at 0.025 ppm", "setting": "Gaeumannomyces graminis; Gaeumannomyces graminis, B9.1, 1.001 0.0250 ppm, read-out: observed % activity", "value": 0, "unit": "%"}, {"measurement": "inhibition at 0.05 ppm", "setting": "Gaeumannomyces graminis; Gaeumannomyces graminis, B9.1, 1.001 0.0500 ppm, read-out: observed % activity", "value": 0, "unit": "%"}, {"measurement": "inhibition at 0.1 ppm", "setting": "Gaeumannomyces graminis; [4]", "value": 0, "unit": "%"}, {"measurement": "inhibition at 0.2 ppm", "setting": "Gaeumannomyces graminis; [4]", "value": 0, "unit": "%"}, {"measurement": "observed % activity", "setting": "[1]; 1.001 0.0016 ppm", "value": 4, "unit": "%"}, {"measurement": "observed % activity", "setting": "[1]; 1.001 0.0031 ppm", "value": "10% and 6%"}, {"measurement": "observed % activity", "setting": "[1]; 1.001 0.0125 ppm", "value": 4, "unit": "%"}, {"measurement": "observed % activity", "setting": "[1]; 1.001 0.1000 ppm", "value": 61, "unit": "%"}, {"measurement": "observed % activity", "setting": "[1]; 1.001 0.2000 ppm", "value": "90% and 87% and 79%"}, {"measurement": "inhibition at 0.004 ppm", "setting": "[1]; Monographella nivalis, 1.001 0.004 ppm, read-out: observed % activity", "value": 0, "unit": "%"}, {"measurement": "inhibition at 0.1 ppm", "setting": "[1]; Monographella nivalis, 1.001 0.1000 ppm (Table B54), read-out: observed % activity", "value": 22, "unit": "%"}, {"measurement": "inhibition at 0.1 ppm", "setting": "[1]; Monographella nivalis, 1.001 0.1000 ppm (Table B55), read-out: observed % activity", "value": 19, "unit": "%"}, {"measurement": "inhibition at 0.2 ppm", "setting": "[1]; Monographella nivalis, 1.001 0.2000 ppm, read-out: observed % activity", "value": 85, "unit": "%"}, {"measurement": "inhibition at 0.0125 ppm", "setting": "[1]; Monographella nivalis, B1.3, 1.001 0.0125 ppm, read-out: observed % activity", "value": 0, "unit": "%"}, {"measurement": "inhibition at 0.025 ppm", "setting": "[1]; [5]", "value": 5, "unit": "%"}, {"measurement": "inhibition at 0.05 ppm", "setting": "[1]; [5]", "value": 45, "unit": "%"}, {"measurement": "inhibition at 0.2 ppm", "setting": "[1]; Monographella nivalis, B1.3, 1.001 0.2000 ppm, read-out: observed % activity", "value": 78, "unit": "%"}, {"measurement": "inhibition at 0.025 ppm", "setting": "[1]; [6]", "value": 0, "unit": "%"}, {"measurement": "inhibition at 0.05 ppm", "setting": "[1]; [6]", "value": 26, "unit": "%"}, {"measurement": "inhibition at 0.0008 ppm", "setting": "[1]; Monographella nivalis, B3.4, 1.001 0.0008 ppm, read-out: observed % activity", "value": 1, "unit": "%"}, {"measurement": "inhibition at 0.05 ppm", "setting": "[1]; Monographella nivalis, B4.3, read-out: observed % activity", "value": 15, "unit": "%"}, {"measurement": "inhibition at 0.1 ppm", "setting": "[1]; Monographella nivalis, B4.3, 1.001 0.1000 ppm, read-out: observed % activity", "value": 64, "unit": "%"}, {"measurement": "inhibition at 0.025 ppm", "setting": "[1]; [7]", "value": 2, "unit": "%"}, {"measurement": "inhibition at 0.05 ppm", "setting": "[1]; [7]", "value": 9, "unit": "%"}, {"measurement": "inhibition at 0.1 ppm", "setting": "[1]; Monographella nivalis, B5.4, 1.001 0.1000 ppm, read-out: observed % activity", "value": 60, "unit": "%"}, {"measurement": "inhibition at 0.0016 ppm", "setting": "[1]; Monographella nivalis, B6.3, 1.001 0.0016 ppm, read-out: observed % activity", "value": 0, "unit": "%"}, {"measurement": "inhibition at 0.0031 ppm", "setting": "[1]; Monographella nivalis, B6.3, 1.001 0.0031 ppm, read-out: observed % activity", "value": 3, "unit": "%"}]}
